Reference: ChEMBL document CHEMBL1149138 (J Med Chem, 2004)
pIC50: −log10 of the molar value.

Test system: Mus musculus
Assay: Maximum weight lose in influenza A infected mice when treated by the compound at a dose of 10 mg/kg/day b.i.d.
Assay type: functional

| SMILES | Max weight loss [%] |
| --- | --- |
| CC(=O)NC(C(=O)O)[C@@H]1CCC(=C2SCCCS2)C1 (mixture of isomers; form 1) | 3.1 |

Test system: Mus musculus
Assay: Maximum weight lose in influenza A infected mice when treated by the compound at a dose of 0 mg/kg/day b.i.d.
Assay type: functional

| SMILES | Max weight loss [%] |
| --- | --- |
| CC(=O)NC(C(=O)O)[C@@H]1CCC(=C2SCCCS2)C1 (mixture of isomers; form 1) | 27.5 |

Target: Neuraminidase (Influenza B virus (strain B/Lee/1940), UniProt P03474)
Sequence (P03474 whole entry): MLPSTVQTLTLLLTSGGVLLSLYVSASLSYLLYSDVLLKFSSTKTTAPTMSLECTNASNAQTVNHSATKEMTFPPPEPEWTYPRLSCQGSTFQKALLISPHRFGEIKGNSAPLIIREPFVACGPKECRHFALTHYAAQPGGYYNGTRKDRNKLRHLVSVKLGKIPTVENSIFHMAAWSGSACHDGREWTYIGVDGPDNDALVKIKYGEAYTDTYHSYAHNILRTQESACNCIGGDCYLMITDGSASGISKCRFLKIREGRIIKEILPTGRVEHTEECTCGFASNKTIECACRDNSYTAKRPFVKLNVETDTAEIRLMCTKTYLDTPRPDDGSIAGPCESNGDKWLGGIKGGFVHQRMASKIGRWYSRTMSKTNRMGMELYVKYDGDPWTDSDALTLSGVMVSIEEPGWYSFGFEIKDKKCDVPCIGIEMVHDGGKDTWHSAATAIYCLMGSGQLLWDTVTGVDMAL
Design: species or system Influenza B virus (strain: B/Lee/40)

| SMILES | pIC50 |
| --- | --- |
| CC(=O)NC(C(=O)N1CCC1)[C@H]1CC(C(=O)O)C[C@@H]1N=C(N)N (stereo partly specified) | 5.08 |
| CCC(C)NC(=O)C(NC(C)=O)[C@H]1CC(C(=O)O)C[C@@H]1N=C(N)N (stereo partly specified) | 4.78 |
| CCCCN(C)C(=O)C(NC(C)=O)[C@H]1CC(C(=O)O)C[C@@H]1N=C(N)N (stereo partly specified) | 4.74 |
| CCCN(CCC)C(=O)C(NC(C)=O)[C@H]1C[C@](O)(C(=O)O)C[C@@H]1N=C(N)N (stereo in doubt) | 4.48 |
| CC(=O)NC(C(=O)N(C)C(C)C)[C@H]1CC(C(=O)O)C[C@@H]1N=C(N)N (stereo partly specified) | 5.17 |
| CCN(CCO)C(=O)C(NC(C)=O)[C@H]1CC(C(=O)O)C[C@@H]1N=C(N)N (stereo partly specified) | < 4.52 |
| CCC(COC)NC(=O)C(NC(C)=O)[C@H]1CC(C(=O)O)C[C@@H]1N=C(N)N (stereo partly specified) | 4.70 |
| CC(=O)NC(C(=O)NC(C)CC(C)C)[C@H]1CC(C(=O)O)C[C@@H]1N=C(N)N (stereo partly specified) | 4.94 |
| CCCN(CC1CC1)C(=O)C(NC(C)=O)[C@H]1CC(C(=O)O)C[C@@H]1N=C(N)N (stereo partly specified) | 4.62 |
| CCCC1CCCCN1C(=O)C(NC(C)=O)[C@H]1CC(C(=O)O)C[C@@H]1N=C(N)N (stereo partly specified) | 4.84 |
| CC(=O)NC(C(=O)O)[C@@H]1CCC(=C2SCCCS2)C1 (mixture of isomers; form 2) | 5.52 |
| CCCCCCN(C)C(=O)C(NC(C)=O)[C@H]1CC(C(=O)O)C[C@@H]1N=C(N)N (stereo partly specified) | < 4.52 |
| CCN(CC)C(=O)C(NC(C)=O)[C@H]1C[C@@H](C(=O)O)C[C@@H]1N=C(N)N (stereo partly specified) | 5.82 |
| CCCCC(C)NC(=O)C(NC(C)=O)[C@H]1CC(C(=O)O)C[C@@H]1N=C(N)N (stereo partly specified) | 4.43 |
| CC(=O)NC(C(=O)N(C)CCc1ccccc1)[C@H]1CC(C(=O)O)C[C@@H]1N=C(N)N (stereo partly specified) | 4.57 |
| CCCN(C)C(=O)C(NC(C)=O)[C@H]1CC(C(=O)O)C[C@@H]1N=C(N)N (stereo partly specified) | 5.21 |
| CC(=O)NC(C(=O)NCCc1ccccc1)[C@H]1CC(C(=O)O)C[C@@H]1N=C(N)N (stereo partly specified) | 4.15 |
| CC(=O)NC(C(=O)N1CC(C)CC(C)C1)[C@H]1CC(C(=O)O)C[C@@H]1N=C(N)N (stereo partly specified) | < 4.00 |
| CCC(CC)NC(=O)C(NC(C)=O)[C@H]1CC(C(=O)O)C[C@@H]1N=C(N)N (stereo partly specified) | 5.52 |
| CC(=O)NC(C(=O)N1CCCCC1)[C@H]1CC(C(=O)O)C[C@@H]1N=C(N)N (stereo partly specified) | 5.16 |
| CC(=O)NC(C(=O)N1CCC(C)CC1)[C@H]1CC(C(=O)O)C[C@@H]1N=C(N)N (stereo partly specified) | 4.37 |
| CCN(Cc1ccccc1)C(=O)C(NC(C)=O)[C@H]1CC(C(=O)O)C[C@@H]1N=C(N)N (stereo partly specified) | < 4.52 |

| SMILES | pIC50 |
| --- | --- |
| CC(=O)NC(C(=O)N1CCCC1)[C@H]1CC(C(=O)O)C[C@@H]1N=C(N)N (stereo partly specified) | 4.62 |
| CC(=O)NC(C(=O)N1CCCC(C)C1)[C@H]1CC(C(=O)O)C[C@@H]1N=C(N)N (stereo partly specified) | < 5.00 |
| CCC1CCCCN1C(=O)C(NC(C)=O)[C@H]1CC(C(=O)O)C[C@@H]1N=C(N)N (stereo partly specified) | 5.51 |
| C=CCNC(=O)C(NC(C)=O)[C@H]1CC(C(=O)O)C[C@@H]1N=C(N)N (stereo partly specified) | 5.37 |
| CC(=O)NC(C(=O)N1CCOCC1)[C@H]1CC(C(=O)O)C[C@@H]1N=C(N)N (stereo partly specified) | 5.11 |
| CCCCC(CC)NC(=O)C(NC(C)=O)[C@H]1CC(C(=O)O)C[C@@H]1N=C(N)N (stereo partly specified) | 4.80 |
| CCCN(CCC)C(=O)C(NC(C)=O)[C@H]1CC(C(=O)O)C[C@@H]1N=C(N)N (stereo partly specified) | 5.04 |
| CC(=O)NC(C(=O)N1CCSCC1)[C@H]1CC(C(=O)O)C[C@@H]1N=C(N)N (stereo partly specified) | 4.54 |
| CC(=O)NC(C(=O)N1CCCCCC1)[C@H]1CC(C(=O)O)C[C@@H]1N=C(N)N (stereo partly specified) | 4.60 |
| COCC(C)NC(=O)C(NC(C)=O)[C@H]1CC(C(=O)O)C[C@@H]1N=C(N)N (stereo partly specified) | 4.60 |
| C=CCN(C)C(=O)C(NC(C)=O)[C@H]1CC(C(=O)O)C[C@@H]1N=C(N)N (stereo partly specified) | 4.93 |
| CC(=O)NC(C(=O)O)[C@@H]1CCC(=C2SCCCS2)C1 (single isomer, unassigned) | 5.07 |
| CCNC(=O)C(NC(C)=O)[C@H]1CC(C(=O)O)C[C@@H]1N=C(N)N (stereo partly specified) | 5.51 |
| CCN(CC)C(=O)C(NC(C)=O)[C@H]1CC(C(=O)O)C[C@@H]1N=C(N)N (stereo partly specified) | 5.52 |
| CCCN(CC)C(=O)C(NC(C)=O)[C@H]1CC(C(=O)O)C[C@@H]1N=C(N)N (stereo partly specified) | 5.15 |
| CCCCNC(=O)C(NC(C)=O)[C@H]1CC(C(=O)O)C[C@@H]1N=C(N)N (stereo partly specified) | 4.33 |
| CC(=O)NC(C(=O)O)[C@@H]1CCC(=C2SCCCS2)C1 (mixture of isomers; form 1) | 5.52 |
| CC(=O)NC(C(=O)N1CCCCC1C)[C@H]1CC(C(=O)O)C[C@@H]1N=C(N)N (stereo partly specified) | 4.98 |
| CC(=O)NC(C(=O)NC(C)CCc1ccccc1)[C@H]1CC(C(=O)O)C[C@@H]1N=C(N)N (stereo partly specified) | 4.90 |
| CC(=O)NC(C(=O)NC(C)C)[C@H]1CC(C(=O)O)C[C@@H]1N=C(N)N (stereo partly specified) | 5.34 |
| CCCC(C)NC(=O)C(NC(C)=O)[C@H]1CC(C(=O)O)C[C@@H]1N=C(N)N (stereo partly specified) | 4.91 |

Test system: Mus musculus
Assay: Maximum weight lose in influenza A infected mice when treated by the compound at a dose of 0.1 mg/kg/day b.i.d.
Assay type: functional

| SMILES | Max weight loss [%] |
| --- | --- |
| CC(=O)NC(C(=O)O)[C@@H]1CCC(=C2SCCCS2)C1 (mixture of isomers; form 1) | 12.7 |

Target: Neuraminidase (Influenza A virus (A/Puerto Rico/8/1934(H1N1)), UniProt P03468)
Sequence (P03468 whole entry): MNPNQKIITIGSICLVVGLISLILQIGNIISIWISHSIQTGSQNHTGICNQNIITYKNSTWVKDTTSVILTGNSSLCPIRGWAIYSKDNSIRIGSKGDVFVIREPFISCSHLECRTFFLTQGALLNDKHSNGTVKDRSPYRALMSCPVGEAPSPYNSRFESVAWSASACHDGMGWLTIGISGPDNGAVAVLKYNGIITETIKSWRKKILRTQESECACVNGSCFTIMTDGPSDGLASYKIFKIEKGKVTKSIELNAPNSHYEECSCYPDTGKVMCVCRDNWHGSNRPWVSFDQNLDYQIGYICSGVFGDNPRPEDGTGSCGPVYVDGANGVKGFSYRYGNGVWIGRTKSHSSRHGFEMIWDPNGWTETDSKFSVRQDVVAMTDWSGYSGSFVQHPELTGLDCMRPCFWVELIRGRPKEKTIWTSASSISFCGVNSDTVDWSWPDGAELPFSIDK

| SMILES | pIC50 |
| --- | --- |
| CCCN(CCC)C(=O)C(NC(C)=O)[C@H]1C[C@@](O)(C(=O)O)C[C@@H]1N=C(N)N (stereo partly specified) | 6.33 |
| CCCN(CCC)C(=O)C(NC(C)=O)[C@H]1C[C@](O)(C(=O)O)C[C@@H]1N=C(N)N (stereo in doubt) | 5.31 |
| CC(=O)NC(C(=O)O)[C@@H]1CCC(=C2SCCCS2)C1 (mixture of isomers; form 2) | 7.22 |
| CCN(CC)C(=O)C(NC(C)=O)[C@H]1C[C@@H](C(=O)O)C[C@@H]1N=C(N)N (stereo partly specified) | 8.15 |
| CC(=O)NC(C(=O)O)[C@@H]1CCC(=C2SCCCS2)C1 (stereo in doubt) | 4.60 |
| CCCN(CCC)C(=O)C(NC(C)=O)[C@H]1C[C@](O)(C(=O)O)C[C@@H]1N=C(N)N (mixture of isomers) | 2.64 |
| CC(=O)NC(C(=O)O)[C@@H]1CCC(=C2SCCCS2)C1 (single isomer, unassigned) | 7.37 |
| CCN(CC)C(=O)C(NC(C)=O)[C@H]1C[C@@](O)(C(=O)O)C[C@@H]1N=C(N)N (stereo partly specified) | 5.80 |
| CC(=O)NC(C(=O)O)[C@@H]1CCC(=C2SCCCS2)C1 (mixture of isomers; form 1) | 8.15 |

Test system: Mus musculus
Assay: Maximum weight lose in influenza A infected mice when treated by the compound at a dose of 1 mg/kg/day b.i.d.
Assay type: functional

| SMILES | Max weight loss [%] |
| --- | --- |
| CC(=O)NC(C(=O)O)[C@@H]1CCC(=C2SCCCS2)C1 (mixture of isomers; form 1) | 8.7 |
